Patent publication US20040142864A1, “Crystal structure of PIM-1 kinase” (Plexxikon, Inc., priority 2002, published 2004)
pIC50: −log10 of the molar value.

Target: PIM-1 (Homo sapiens, UniProt P11309)
Experiment: PY20 AlphaScreen kit kinase inhibition assay

Chain of PIM-1 (P11309 whole entry): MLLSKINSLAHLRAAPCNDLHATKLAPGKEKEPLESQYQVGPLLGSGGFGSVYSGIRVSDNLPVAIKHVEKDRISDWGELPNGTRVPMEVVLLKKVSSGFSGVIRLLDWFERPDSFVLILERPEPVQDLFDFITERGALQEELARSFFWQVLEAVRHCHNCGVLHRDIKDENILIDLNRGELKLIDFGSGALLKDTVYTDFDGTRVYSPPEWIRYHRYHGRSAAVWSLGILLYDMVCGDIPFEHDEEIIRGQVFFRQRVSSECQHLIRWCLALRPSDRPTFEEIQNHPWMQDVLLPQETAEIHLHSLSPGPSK

pIC50: 8.00
SMILES: CSc1cccc(Nc2ncc3cc(-c4c(Cl)cccc4Cl)c(=O)n(C)c3n2)c1
